{"source": "patent US20050014744A1", "about": "“Benzothiazine and benzothiadiazine compounds” (priority 2001, published 2005)", "system": "AMPA receptors", "experiment": "Excitatory fluxes induced by AMPA in Xenopus oocytes (2-electrode voltage-clamp)", "assay_type": "cell-based", "conditions": "Xenopus oocytes injected with rat cerebral cortex poly-(A+) mRNA, AMPA 10 μM, 20 to 24° C., OR2 medium", "procedure": "Study of the Excitatory Fluxes Induced By AMPA in Xenopus oocytes\nmRNAs are prepared from cerebral cortex of male Wistar rat by the guanidinium thiocyanate/phenol/chloroform method. The poly-(A^+) mRNAs are isolated by chromatography on oligo-dT cellulose and injected in an amount of 50 ng per oocyte. The oocytes are left to incubate for 2 to 3 days at 18° C. to allow expression of the receptors and are then stored at from 8 to 10° C.\nElectrophysiological recording is carried out in a Plexiglass® chamber at from 20 to 24° C. in OR2 medium (J. Exp. Zool., 1973, 184, 321-334) by the 2-electrode “voltage-clamp” method, a 3rd electrode being placed in the bath to serve as reference.\nAll the compounds are administered via the incubation medium and the electric current is measured at the end of the period of administration. AMPA is used at a concentration of 10 μM. For each compound studied, the concentration that doubles (EC2X) or quintuples (EC5X) the intensity of the current induced by AMPA alone (5 to 50 nA) is determined.", "note": "Like-named read-outs stand apart in the source and are kept apart here."}
{"smiles": "O=C(Oc1ccc2c(c1)S(=O)(=O)NCC2)c1ccccc1", "note": "[Example 2, 1,1-Dioxido-3,4-dihydro-2H-1,2-benzothiazin-7-yl Benzoate]", "values": [{"measurement": "Concentration that doubles (EC2X) or quintuples (EC5X) the AMPA-induced current", "setting": "read-out: EC2X (concentration that doubles the intensity of the current induced by AMPA alone)", "value": 11.9, "unit": "µM"}, {"measurement": "Concentration that doubles (EC2X) or quintuples (EC5X) the AMPA-induced current", "setting": "read-out: EC5X (concentration that quintuples the intensity of the current induced by AMPA alone)", "value": 49.3, "unit": "µM"}]}
